Assays:
[1] = biological target: T1, Hsp90 ATPase activity (Homo sapiens, UniProt P07900); assay: ATP hydrolysis inhibition (ADP Hunter Plus assay); type: biochemical; details: 40 nM Hsp90, 100 µM ATP; for inhibition of the ATPase activity of Hsp90: 60 min, 40°C, different concentrations
T1 construct: purchased Assay Designs (Ann Arbor, MI, USA); host or cells: E. coli
Protocol: To evaluate the effect of interacting compounds on Hsp90 biological activity, the ATPase activity of the enzyme was tested in the presence of the most affine compounds (1, 3 and 4); […]. (−)-Lentiginosine was used as negative control.
The Discover RX ADP HunterTM Plus Assay kit was used following the manufacturer’s instructions. […]. ADP generation was measured using a Perkin Elmer LS 55 fluorimeter (540 nm excitation and 620 nm emission). Fluorescence intensity values measured for Hsp90 without any testing compound was assumed as 100% of enzyme activity. The background reaction rate was measured in a reaction lacking enzyme or substrate and subtracted from the experimental rates.

[2] = biological target: T2, Hsp90 chaperone activity (Homo sapiens, UniProt P07900); assay: Citrate synthase thermal aggregation assay (chaperone activity); type: biochemical; details: 0.075 µM CS, 0.075 µM Hsp90, 0.3 µM compound (4-fold molar excess), 43°C, light scattering
T2 construct: purchased Assay Designs (Ann Arbor, MI, USA); host or cells: E. coli
Protocol: The ability of compounds 1, 3 and 4 to inhibit the chaperone activity of Hsp90 was also evaluated monitoring the citrate synthase (CS) thermal induced aggregation in the presence of Hsp90 [24], with or without these compounds. […] The spontaneous aggregation of CS at 43°C (♦) and the aggregation of CS at 43°C in the presence of 0.075 µM Hsp90 (Δ) or of 0.075 µM Hsp90 and 0.3 µM compound 1 (▪), 0.3 µM compound 2 (•), 0.3 compound 3 (□), or 0.3 µM compound 4 (○) are shown. Chaperone activity was evaluated as reported elsewhere by monitoring the thermal-induced aggregation of Citrate synthase (CS) in absence or in presence of a stoichiometric amount of Hsp90, and with or without a 4-fold molar excess of each testing compound. Aggregation was initiated by unfolding CS (0.075 µM) incubating the protein in 40 mM HEPES–KOH, pH 7.5 at 43°C. Aggregation was monitored by measuring light scattering at right angles with Perkin Elmer LS 55 fluorimeter in stirred and thermostated quartz cells. Both the emission and excitation wavelengths were set at 500 nm, and the band pass was 2 nm. Kinetics traces reported here are the averages of two measurements.

[3] = biological target: T3, Hsp90 (Homo sapiens, UniProt P07900); assay: SPR binding assay on immobilized Hsp90
T3 construct: purchased Assay Designs (Ann Arbor, MI, USA); host or cells: E. coli
Protocol: Radicicol was used as positive controls.
SPR analyses were performed as describe elsewhere, [38]. Briefly, SPR analyses were performed using a Biacore 3000 optical biosensor equipped with research-grade CM5 sensor chips (GE Healthcare). Using this platform, two separate recombinant Hsp90 surfaces, a BSA surface and an unmodified reference surface were prepared for simultaneous analyses. […] Included in each analysis were multiple blank samples of running buffer alone. Binding experiments were performed at 25°C, using a flow rate of 50 µL min^−1, with 60 s monitoring of association and 200 s monitoring of dissociation. […] Sensorgram elaborations were performed using the Biaevaluation software provided by GE Healthcare.

[4] = biological target: T4, human full length recombinant Hsp90 (Homo sapiens, UniProt P07900); assay: Competitive fluorescence polarization assay with fluorescent geldanamycin probe (fGDA); type: binding; details: concentration up to 100 µM, added before or after fGDA
T4 construct: purchased Assay Designs (Ann Arbor, MI, USA); host or cells: E. coli
Protocol: In an effort to identify the Hsp90 region involved in (+)-lentiginosine binding, we first performed some fluorescence polarization assays using a fluorescent geldanamycin probe (fGDA) to evaluate if this compound could interact with the ATP-binding pocket of Hsp90 [25].
Binding of compound 1 to human full length recombinant Hsp90 was determined by a competitive binding fluorescence polarization assay using a fluorescent geldanamycin probe, as reported elsewhere.

[5] = immobilized Hsp90, 25°C, single-site bimolecular model

| Compound | inhibition of the ATPase activity of Hsp90 [1] | inhibition of Hsp90 chaperone activity (CS aggregation kinetics) [2] | Kd [3, 5] | koff [3, 5] | interaction with immobilized Hsp90 ([3]; 0.020 to 1 µM) | KD [3, 5] | displacement of fGDA from Hsp90 [4] | ATPase inhibitory power compared with 17-AAG [1] |
| --- | --- | --- | --- | --- | --- | --- | --- | --- |
| CCCCCCc1cn([C@H]2CCN3C[C@H](O)[C@@H](O)[C@@H]3C2)nn1 [Compound 4] | inhibit the ATPase activity of Hsp90 in a concentration dependent manner | inhibitory effects were less evident | 45.9 ± 0.5 nM | 2.05±0.42 10^-3 1/s | – | – | – | – |
| O[C@H]1[C@H](O)CN2CCCC[C@H]12 [Compound 2, (−)-lentiginosine] | – | not able to inhibit the chaperone activity of Hsp90 | – | – | did not bind | No binding | – | – |
| O[C@@H]1[C@@H](O)CN2CCCC[C@@H]12 [Compound 1, (+)-lentiginosine] | inhibit the ATPase activity of Hsp90 in a concentration dependent manner | inhibition of Hsp90 chaperone activity | 24.7 ± 0.6 nM | 1.86±0.31 10^-3 1/s | – | – | unable to displace fGDA | inhibitory power higher than that measured for 17-AAG |
| N[C@H]1CCN2C[C@H](O)[C@@H](O)[C@@H]2C1 [Compound 7] | – | – | 1009 ± 5.8 nM | 25.6±2.1 10^-3 1/s | – | – | – | – |
| OCCc1cn([C@H]2CCN3C[C@H](O)[C@@H](O)[C@@H]3C2)nn1 [Compound 5] | – | – | 116 ± 1.6 nM | 2.55±0.35 10^-3 1/s | – | – | – | – |
| N[C@@H](Cc1c[nH]c2ccccc12)C(=O)NCc1cn([C@H]2CCN3C[C@H](O)[C@@H](O)[C@@H]3C2)nn1 [Compound 6] | – | – | 306.8 ± 2.9 nM | 4.12±0.81 10^-3 1/s | – | – | – | – |
| N=C(N)NCCC[C@H](N)C(=O)N[C@H]1CCN2C[C@H](O)[C@@H](O)[C@@H]2C1 [Compound 3] | inhibit the ATPase activity of Hsp90 in a concentration dependent manner | inhibitory effects were less evident | 108 ± 1.1 nM | 2.18±0.23 10^-3 1/s | – | – | – | – |

Source: publication PMC3423353, “Natural Iminosugar (+)-Lentiginosine Inhibits ATPase and Chaperone Activity of Hsp90” (PLoS ONE, 2012)
